Experimental data published in PMC10392092, “Structural and molecular basis for urea recognition by Prochlorococcus” (The Journal of Biological Chemistry, 2023).

Columns and labels:
Test in all cases: isothermal titration calorimetry
Assay type in all cases: binding
UrtA [1] = target: T1, UrtA (Prochlorococcus marinus, UniProt Q7V3V9)
T1 construct: 24-residue predicted signal peptide removed from 431-residue precursor (432 elsewhere in the source); C-terminal 6xHis tag, pET-22b, E. coli BL21(DE3); about 50 kDa; monomer; structure residues 38-431 described
T1 sequence (Q7V3V9 25-431): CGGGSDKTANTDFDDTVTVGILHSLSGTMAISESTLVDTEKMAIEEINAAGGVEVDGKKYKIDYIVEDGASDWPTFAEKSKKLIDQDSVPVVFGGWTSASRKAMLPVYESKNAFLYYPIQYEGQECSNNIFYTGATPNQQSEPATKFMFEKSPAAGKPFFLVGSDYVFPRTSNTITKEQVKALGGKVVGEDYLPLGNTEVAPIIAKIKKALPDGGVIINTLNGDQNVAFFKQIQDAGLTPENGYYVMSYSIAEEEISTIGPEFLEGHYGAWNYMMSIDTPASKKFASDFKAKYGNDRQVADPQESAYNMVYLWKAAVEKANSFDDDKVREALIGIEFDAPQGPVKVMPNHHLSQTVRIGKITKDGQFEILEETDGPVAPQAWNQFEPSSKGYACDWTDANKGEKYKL

UrtA [2] = target: T2, UrtA (Prochlorococcus marinus, UniProt Q7V3V9, S274A)
T2 construct: 24-residue predicted signal peptide removed from 431-residue precursor (432 elsewhere in the source); C-terminal 6xHis tag, pET-22b, E. coli BL21(DE3); about 50 kDa; monomer; structure residues 38-431 described

UrtA [3] = target: T3, UrtA (Prochlorococcus marinus, UniProt Q7V3V9, F192A)
T3 construct: 24-residue predicted signal peptide removed from 431-residue precursor (432 elsewhere in the source); C-terminal 6xHis tag, pET-22b, E. coli BL21(DE3); about 50 kDa; monomer; structure residues 38-431 described

UrtA [4] = target: T4, UrtA (Prochlorococcus marinus, UniProt Q7V3V9, Y141A)
T4 construct: 24-residue predicted signal peptide removed from 431-residue precursor (432 elsewhere in the source); C-terminal 6xHis tag, pET-22b, E. coli BL21(DE3); about 50 kDa; monomer; structure residues 38-431 described

UrtA [5] = target: T5, UrtA (Prochlorococcus marinus, UniProt Q7V3V9, E146A)
T5 construct: 24-residue predicted signal peptide removed from 431-residue precursor (432 elsewhere in the source); C-terminal 6xHis tag, pET-22b, E. coli BL21(DE3); about 50 kDa; monomer; structure residues 38-431 described

UrtA [6] = target: T6, UrtA (Prochlorococcus marinus, UniProt Q7V3V9, W120A); conditions: pH 8.0, 20 mM Tris-HCl, 200 mM NaCl, 25 °C
T6 construct: 24-residue predicted signal peptide removed from 431-residue precursor (432 elsewhere in the source); C-terminal 6xHis tag, pET-22b, E. coli BL21(DE3); about 50 kDa; monomer; structure residues 38-431 described
T6 sequence (Q7V3V9 entry or part of it W120A): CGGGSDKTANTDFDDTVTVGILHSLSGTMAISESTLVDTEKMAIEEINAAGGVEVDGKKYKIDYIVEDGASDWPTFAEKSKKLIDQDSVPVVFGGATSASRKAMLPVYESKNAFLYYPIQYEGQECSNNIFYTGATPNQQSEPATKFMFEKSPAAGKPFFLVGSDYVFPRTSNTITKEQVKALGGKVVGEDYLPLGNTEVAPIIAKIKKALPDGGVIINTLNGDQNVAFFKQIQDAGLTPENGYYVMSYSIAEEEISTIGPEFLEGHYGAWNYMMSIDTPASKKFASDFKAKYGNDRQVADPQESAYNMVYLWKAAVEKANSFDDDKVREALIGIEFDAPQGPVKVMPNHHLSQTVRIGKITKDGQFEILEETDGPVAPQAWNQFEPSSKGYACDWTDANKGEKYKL

T4 sequence (Q7V3V9 entry or part of it Y141A): as the sequence (Q7V3V9 entry or part of it W120A) above, with A96W, Y117A counted along it
T5 sequence (Q7V3V9 entry or part of it E146A): as the sequence (Q7V3V9 entry or part of it W120A) above, with A96W, E122A counted along it
T3 sequence (Q7V3V9 entry or part of it F192A): as the sequence (Q7V3V9 entry or part of it W120A) above, with A96W, F168A counted along it
T2 sequence (Q7V3V9 entry or part of it S274A): as the sequence (Q7V3V9 entry or part of it W120A) above, with A96W, S250A counted along it

Kd (UrtA [1]): 141 ± 11.2 nM | Kd (UrtA [2]): 1280 ± 639 nM | Kd (UrtA [3]): 114 ± 26.7 nM | Kd (UrtA [4]): 7950 ± 1220 nM | Kd (UrtA [5]): 3050 ± 609 nM
SMILES: NC(N)=O [urea]
Kd (UrtA [6]): the mutant W120A was unable to bind to urea
